Common to all, as to format: biochemical
Assay [1] deals with T1, acetylcholinesterase (AChE) (Electrophorus electricus, UniProt O42275). In words: electrochemical detection of thiocholine from hydrolysis by immobilized AChE.
Assay [2] has as its target T1, acetylcholinesterase (AChE). In words: DPV peak current suppression with immobilized AChE ([…] at […]).
For assay [3] the target is unchanged. In words: electrochemical (DPV/EIS/CV) inhibition of immobilized AChE, acetylthiocholine substrate.

The structures appear in SMILES notation.

T1 sequence (O42275 24-633): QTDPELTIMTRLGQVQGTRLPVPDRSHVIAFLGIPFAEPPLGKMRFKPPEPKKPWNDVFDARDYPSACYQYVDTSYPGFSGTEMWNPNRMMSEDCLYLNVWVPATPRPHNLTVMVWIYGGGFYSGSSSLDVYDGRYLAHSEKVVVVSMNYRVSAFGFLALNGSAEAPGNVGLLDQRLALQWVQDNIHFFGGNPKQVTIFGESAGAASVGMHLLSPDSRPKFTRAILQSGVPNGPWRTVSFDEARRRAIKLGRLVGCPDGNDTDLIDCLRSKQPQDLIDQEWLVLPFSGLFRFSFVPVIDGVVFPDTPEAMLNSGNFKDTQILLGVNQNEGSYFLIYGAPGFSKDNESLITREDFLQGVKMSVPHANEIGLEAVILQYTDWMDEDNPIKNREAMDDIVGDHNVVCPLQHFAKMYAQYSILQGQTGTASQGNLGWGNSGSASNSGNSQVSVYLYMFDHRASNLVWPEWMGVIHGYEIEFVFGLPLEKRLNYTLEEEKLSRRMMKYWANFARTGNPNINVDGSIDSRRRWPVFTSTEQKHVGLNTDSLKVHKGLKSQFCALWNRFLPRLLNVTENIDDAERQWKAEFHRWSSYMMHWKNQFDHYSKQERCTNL

As to `CC(=O)SCC[N+](C)(C)C` [ACTI, acetylthiocholine iodide], in assay [1], the “electrochemical detection of thiocholine from hydrolysis by immobilized AChE” value is on record as “In the absence of OP, AChE efficiently hydrolyzed ACTI into electroactive thiocholine (TCh)”. As for `COP(=O)(NC(C)=O)SC` (stereo not drawn) [ACE, acephate], the “percent DPV peak current suppression” value in assay [2] came to 37% at 2 nM. In turn, `CCOP(=S)(OCC)Oc1nc(Cl)c(Cl)cc1Cl` [CPS, chlorpyrifos] showed an inhibition constant (Ki) in assay [3] of 62 nM.

The record behind these values is paper PMC12467903, “A Sensitive Electrochemical Cholinesterase-Inhibiting Biosensor for Organophosphorus Pesticides Based on Ti3C2TX MXene Quantum Dots” (Biosensors, 2025).
